Reference: PMC5494547 (2015)

Experiments:
[1] = system: MBA1 (DNA, aptamer) TACACTGGGGAGTATTGCGGAGGAAGTGTA; assay: circular dichroism; conditions: 1 µM MBA1, 50 mM ATP; quadruplex bands at 265 and 295 nm
[2] = system: MBA3 (DNA, aptamer) GCGCGCGGGGAGTATTGCGGAGGAGCGCGC; assay: circular dichroism; conditions: CD unchanged by PPFP-Br; tighter folded G-quadruplex than ATP/MBA1

binding [1]: yes
binding [2]: yes
SMILES: Nc1ncnc2c1ncn2[C@@H]1O[C@H](COP(=O)(O)OP(=O)(O)OP(=O)(O)O)[C@@H](O)[C@H]1O
